Measured values reported in PubChem BioAssay (NCI).
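Values below derive from 48-hour exposures of cells grown in 96-well plates, with endpoints linearly interpolated between the two concentrations bracketing the appropriate inhibition level. The concentration for 50% growth inhibition is given as GI50. Definition used: TGI = concentration required for complete inhibition of growth.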

Key:
Assay in all cases: inhibition of tumour cell growth, NCI panel, 48 h
786-0 renal = test system: 786-0 renal
A498 renal = test system: A498 renal
A549 NSCLC = test system: A549 NSCLC
ACHN renal = test system: ACHN renal
BT-549 breast = test system: BT-549 breast
CAKI-1 renal = test system: CAKI-1 renal
CCRF-CEM leukemia = test system: CCRF-CEM leukemia
COLO 205 colon = test system: COLO 205 colon
DU-145 prostate = test system: DU-145 prostate
HCC-2998 colon = test system: HCC-2998 colon
HCT-116 colon = test system: HCT-116 colon
HCT-15 colon = test system: HCT-15 colon
HL-60(TB) leukemia = test system: HL-60(TB) leukemia
HOP-62 NSCLC = test system: HOP-62 NSCLC
HOP-92 NSCLC = test system: HOP-92 NSCLC
HS 578T breast = test system: HS 578T breast
HT29 colon = test system: HT29 colon
IGROV1 ovarian = test system: IGROV1 ovarian
K-562 leukemia = test system: K-562 leukemia
KM12 colon = test system: KM12 colon
LOX IMVI melanoma = test system: LOX IMVI melanoma
M14 melanoma = test system: M14 melanoma
MALME-3M melanoma = test system: MALME-3M melanoma
MCF7 breast = test system: MCF7 breast
MDA-MB-231 breast = test system: MDA-MB-231 breast
MDA-MB-435 = test system: MDA-MB-435
MOLT-4 leukemia = test system: MOLT-4 leukemia
NCI-H226 lung = test system: NCI-H226 lung
NCI-H23 lung = test system: NCI-H23 lung
NCI-H460 lung = test system: NCI-H460 lung
NCI-H522 lung = test system: NCI-H522 lung
NCI/ADR-RES ovarian = test system: NCI/ADR-RES ovarian
OVCAR-3 ovarian = test system: OVCAR-3 ovarian
OVCAR-4 ovarian = test system: OVCAR-4 ovarian
OVCAR-5 ovarian = test system: OVCAR-5 ovarian
OVCAR-8 ovarian = test system: OVCAR-8 ovarian
PC-3 prostate = test system: PC-3 prostate
RPMI-8226 leukemia = test system: RPMI-8226 leukemia
RXF 393 renal = test system: RXF 393 renal
SF-268 CNS = test system: SF-268 CNS
SF-295 CNS = test system: SF-295 CNS
SF-539 CNS = test system: SF-539 CNS
SK-MEL-2 melanoma = test system: SK-MEL-2 melanoma
SK-MEL-28 melanoma = test system: SK-MEL-28 melanoma
SK-MEL-5 melanoma = test system: SK-MEL-5 melanoma
SK-OV-3 ovarian = test system: SK-OV-3 ovarian
SN12C renal = test system: SN12C renal
SNB-19 CNS = test system: SNB-19 CNS
SNB-75 CNS = test system: SNB-75 CNS
SR leukemia = test system: SR leukemia
SW-620 colon = test system: SW-620 colon
T-47D breast = test system: T-47D breast
TK-10 renal = test system: TK-10 renal
U251 CNS = test system: U251 CNS
UACC-257 melanoma = test system: UACC-257 melanoma
UACC-62 melanoma = test system: UACC-62 melanoma
UO-31 renal = test system: UO-31 renal

In the case of `OCc1ccc(N2CCC2c2ccc(F)cc2)cc1Cl` (stereo not drawn), the GI50 (786-0 renal) is reported as 22.6 µM, the TGI (786-0 renal) is reported as greater than 61.5 µM and the GI50 (A498 renal) is reported as 0.0584 µM. The TGI (A498 renal) was 0.244 µM, the GI50 (A549 NSCLC) was 7.44 µM and the TGI (A549 NSCLC) was 64 µM. It also gave a GI50 (ACHN renal) of 30.8 µM, a TGI (ACHN renal) greater than 100 µM and a GI50 (BT-549 breast) of 21.2 µM. It also gave a TGI (BT-549 breast) of 49.9 µM, a GI50 (CAKI-1 renal) of 12.9 µM and a TGI (CAKI-1 renal) greater than 57.1 µM. For the same molecule, the GI50 (CCRF-CEM leukemia) was 26 µM, the TGI (CCRF-CEM leukemia) was greater than 82.9 µM and the GI50 (COLO 205 colon) was 3.44 µM. The TGI (COLO 205 colon) was 15.3 µM, the GI50 (DU-145 prostate) was 35.8 µM and the TGI (DU-145 prostate) was greater than 100 µM. For the same molecule, the GI50 (HCC-2998 colon) was 17.5 µM, the TGI (HCC-2998 colon) was 46 µM and the GI50 (HCT-116 colon) was 0.481 µM. It also gave a TGI (HCT-116 colon) greater than 38.2 µM, a GI50 (HCT-15 colon) of 21.5 µM and a TGI (HCT-15 colon) greater than 100 µM. It also gave a GI50 (HL-60(TB) leukemia) of 18.5 µM, a TGI (HL-60(TB) leukemia) of 51.8 µM and a GI50 (HOP-62 NSCLC) of 10.1 µM. It also gave a TGI (HOP-62 NSCLC) greater than 68 µM, a GI50 (HOP-92 NSCLC) of 3.14 µM and a TGI (HOP-92 NSCLC) of 25.1 µM. For the same molecule, the GI50 (HS 578T breast) was 26.7 µM, the TGI (HS 578T breast) was greater than 86.8 µM and the GI50 (HT29 colon) was 5.13 µM. It also gave a TGI (HT29 colon) of 33 µM, a TGI (IGROV1 ovarian) of 0.742 µM and a GI50 (K-562 leukemia) of 6.66 µM. For the same molecule, the TGI (K-562 leukemia) was 58.6 µM, the GI50 (KM12 colon) was 24.3 µM and the TGI (KM12 colon) was greater than 66.4 µM. For the same molecule, the GI50 (LOX IMVI melanoma) was 22.5 µM, the TGI (LOX IMVI melanoma) was 51.1 µM and the GI50 (M14 melanoma) was 32.7 µM. It also gave a TGI (M14 melanoma) greater than 79.4 µM, a GI50 (MALME-3M melanoma) of 29.4 µM and a TGI (MALME-3M melanoma) greater than 66.1 µM. The GI50 (MCF7 breast) was 0.69 µM, the TGI (MCF7 breast) was 24.5 µM and the GI50 (MDA-MB-231 breast) was 22.6 µM. The TGI (MDA-MB-231 breast) was greater than 68.3 µM, the GI50 (MDA-MB-435) was 26.6 µM and the TGI (MDA-MB-435) was greater than 75.7 µM. For the same molecule, the GI50 (MOLT-4 leukemia) was 25 µM, the TGI (MOLT-4 leukemia) was 64.6 µM and the GI50 (NCI-H226 lung) was 0.0912 µM. For the same molecule, the TGI (NCI-H226 lung) was 0.322 µM, the GI50 (NCI-H23 lung) was 22.2 µM and the TGI (NCI-H23 lung) was greater than 80.1 µM. The GI50 (NCI-H460 lung) was 0.511 µM, the TGI (NCI-H460 lung) was 12.4 µM and the GI50 (NCI-H522 lung) was 20.9 µM. It also gave a TGI (NCI-H522 lung) of 55.9 µM, a GI50 (NCI/ADR-RES ovarian) of 23.7 µM and a TGI (NCI/ADR-RES ovarian) greater than 88.8 µM. The GI50 (OVCAR-3 ovarian) was 2.34 µM, the TGI (OVCAR-3 ovarian) was 13.8 µM and the GI50 (OVCAR-4 ovarian) was 0.925 µM. For the same molecule, the TGI (OVCAR-4 ovarian) was greater than 59.3 µM, the GI50 (OVCAR-5 ovarian) was 0.256 µM and the TGI (OVCAR-5 ovarian) was 1.9 µM. It also gave a GI50 (OVCAR-8 ovarian) of 23.6 µM, a TGI (OVCAR-8 ovarian) greater than 100 µM and a GI50 (PC-3 prostate) of 21 µM. The TGI (PC-3 prostate) was 67.1 µM, the GI50 (RPMI-8226 leukemia) was 6.56 µM and the TGI (RPMI-8226 leukemia) was 31.6 µM. For the same molecule, the GI50 (RXF 393 renal) was 11.6 µM, the TGI (RXF 393 renal) was 30.4 µM and the GI50 (SF-268 CNS) was 35 µM. The TGI (SF-268 CNS) was greater than 100 µM, the GI50 (SF-295 CNS) was 0.438 µM and the TGI (SF-295 CNS) was 7.62 µM. The GI50 (SF-539 CNS) was 33.5 µM, the TGI (SF-539 CNS) was greater than 71 µM and the GI50 (SK-MEL-2 melanoma) was 11.4 µM. For the same molecule, the TGI (SK-MEL-2 melanoma) was 29.3 µM, the GI50 (SK-MEL-28 melanoma) was 28.7 µM and the TGI (SK-MEL-28 melanoma) was greater than 100 µM. It also gave a GI50 (SK-MEL-5 melanoma) of 8.92 µM, a TGI (SK-MEL-5 melanoma) of 22.9 µM and a GI50 (SK-OV-3 ovarian) of 20.5 µM. The TGI (SK-OV-3 ovarian) was greater than 89.1 µM, the GI50 (SN12C renal) was 18.2 µM and the TGI (SN12C renal) was greater than 63.8 µM. It also gave a GI50 (SNB-19 CNS) of 36.6 µM, a TGI (SNB-19 CNS) greater than 100 µM and a GI50 (SNB-75 CNS) of 20.6 µM. The TGI (SNB-75 CNS) was greater than 100 µM, the GI50 (SR leukemia) was 22.6 µM and the TGI (SR leukemia) was 54.8 µM. For the same molecule, the GI50 (SW-620 colon) was 4.93 µM, the TGI (SW-620 colon) was greater than 100 µM and the GI50 (T-47D breast) was 0.209 µM. The TGI (T-47D breast) was 1.72 µM, the GI50 (TK-10 renal) was 0.225 µM and the TGI (TK-10 renal) was 1.61 µM. The GI50 (U251 CNS) was 3.92 µM, the TGI (U251 CNS) was greater than 46.5 µM and the GI50 (UACC-257 melanoma) was 0.278 µM. The TGI (UACC-257 melanoma) was 1.98 µM, the GI50 (UACC-62 melanoma) was 0.397 µM and the TGI (UACC-62 melanoma) was 6.95 µM. It also gave a GI50 (UO-31 renal) of 20.8 µM and a TGI (UO-31 renal) of 76.3 µM.
